One experiment concerns HCV genotype 2a. Nature of the experiment: Genotype 2a assay (NS5A-intergenotypic luciferase replicon / genotype 2a infectious virus assay). It counts as cell-based. The settings on record: Hepatitis C virus, read-out: EC50 2a. The method, boiled down: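 Cured Huh7 cells stably carrying a 1b luciferase replicon with genotype 2a NS5A were titrated in the luciferase assay. Infectious-virus format: HPC hepatoma cells were infected with genotype 2a virus while dosed with ten 5-fold compound dilutions, the inoculum was removed at 16 h, and dosing continued 4 more days at 37 °C. EC50 came from HCV core ELISA (A490).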
(In general: In antiviral work, replicon cells carry a viral genome segment that copies itself.)

Experiment [1] deals with HCV genotype 1a replicon, NS4B E15G. Nature of the experiment: Luciferase replicon transient transfection assay, genotype 1a NS4B E15G. It counts as cell-based, hepatitis C virus. The settings on record: for EC50: Hepatitis C virus, HCV region NS4B, mutation E15G; for Ratio: NS4B E15G. The protocol: The luciferase replicon transient transfection assay measures the ability of a test compound to inhibit the replication of a transiently-transfected HCV luciferase-bearing wild-type or mutant replicon in cured human hepatoma cells (Huh7.5). The inhibition of HCV replication was measured by quantification of luciferase protein expression. This assay has been validated using a panel of genotype 1a and 1b replicons bearing mutations known to be associated with resistance to BMS-790052. Briefly, subconfluent Huh7.5 cells were electroporated with 10 μg of wild-type or mutant luciferase-bearing HCV replicon RNA. The cells were then seeded in 96-well opaque white plates at 3×10^4 cells/well in 150 μL/well and incubated for 4 hrs at 37° C./5% CO2. Ten 1:5 serial dilutions of each test compound were made in media (DMEM containing glucose, L-glutamine and sodium pyruvate, 10% fetal bovine serum, 100 IU/mL penicillin, 100 μg/mL streptomycin, 2 mM GlutaMAX, and 1×MEM non-essential amino acids (Mediatech, Inc. and Invitrogen Corp.)) at concentrations that were 4× higher than the final concentrations to be tested and 50 μL/well was added to the transfected cells. Untreated, mock-transfected cells served as a negative control of luciferase expression. The plates were incubated at 37° C./5% CO2 for 4 days whereupon the media was removed and 50 μL of ONE-glo luciferase substrate (Promega) was added to each well. The plates were agitated on a rotating platform at room temperature for 3 min and read in a Victor^3V microplate reader (Perkin-Elmer) using a 700 nm cut-off filter with a 1 sec read time. EC50 values were calculated from dose response curves from the resulting best-fit equations determined by Microsoft Excel and XLfit 4.1 software.
To determine the replication capacity of each mutant relative to the wild-type parental replicon, transfected cells were plated on two plates and were not treated with compound. Luciferase activity was measured at time points of 4 hrs and 4 days after plating for each replicon. Replication capacity was calculated by dividing the day 4 CPS by the 4 hour CPS for each replicon and determining the percentage present for each mutant replicon relative to wild-type replicon values. The NS3, NS4B, and NS5B mutants were prepared and tested according to the methods described herein.

The structures appear in SMILES notation.

`COC(=O)N[C@H](C(=O)N1CCC[C@H]1c1ncc(-c2ccc(-c3csc4c(-c5cnc([C@@H]6CCCN6C(=O)[C@@H](NC(=O)OC)C(C)C)[nH]5)csc34)cc2)[nH]1)C(C)C` [Compound A15, [(S)-1-((S)-2-{4-[4-(6-{2-[(S)-1-((S)-2-methoxycarbonylamino-3-methyl-butyryl)-pyrrolidin-2-yl]-3H-imidazol-4-yl}-thieno[3,2-b]thiophen-3-yl)-phenyl]-1H-imidazol-2-yl}-pyrrolidine-1-carbonyl)-2-methyl-propyl]-carbamic acid methyl ester]: in the experiment with HCV genotype 2a, the half-maximal effective concentration (EC50) (usually the concentration needed to bring the measured effect to its halfway point) is below 100 pM. On to `COC(=O)N[C@H](C(=O)N1CCC[C@H]1c1nc2cc(-c3csc4c(-c5ccc(-c6cnc([C@@H]7CCCN7C(=O)[C@H](NC(=O)OC)c7ccccc7)[nH]6)cc5)csc34)ccc2[nH]1)C(C)C` [Compound A169, [(S)-1-((S)-2-{6-[6-(4-{(S)-2-[1-((R)-2-methoxycarbonylamino-2-phenyl-acetyl)-pyrrolidin-2-yl]-3H-imidazol-4-yl}-phenyl)-thieno[3,2-b]thiophen-3-yl]-1H-benzoimidazol-2-yl}-pyrrolidine-1-carbonyl)-2-methyl-propyl]-carbamic acid methyl ester], for which, in experiment [1], the midpoint of the response, the EC50, lay at 3 pM and the Ratio worked out at 1.52. For `COC(=O)N[C@H](C(=O)N1CCC[C@H]1c1ncc(-c2ccc(-c3csc4c(-c5ccc6[nH]c([C@@H]7CCCN7C(=O)[C@H](NC(=O)OC)c7ccccc7)nc6c5)csc34)cc2)[nH]1)C(C)C` [Compound A172, [(S)-1-((S)-2-{5-[4-(6-{(S)-2-[1-((R)-2-Methoxycarbonylamino-2-phenyl-acetyl)-pyrrolidin-2-yl]-3H-benzoimidazol-5-yl}-thieno[3,2-b]thiophen-3-yl)-phenyl]-1H-imidazol-2-yl}-pyrrolidine-1-carbonyl)-2-methyl-propyl]-carbamic acid methyl ester], in that order: 6 pM and 1.68.
